Reference: patent US10905657B2, “Solid dispersions of Coenzyme Q10” (Indena S.P.A., priority 2015, dated 2021)

Test: Pharmacokinetic study in rats after single oral dose
Conditions: male, Sprague-Dawley, rat, in vivo, 50 mg/kg, intragastric gavage, single dose 50 mg Coenzyme Q10/Kg, suspended in 1% carboxymethyl cellulose, plasma
Description: Pharmacokinetic parameters (Tmax, Cmax, absolute bioavailability) were determined in rats after the oral administration of a single dose of Coenzyme Q10 as crystalline powder and as solid dispersion with phospholipids.
Male Sprague-Dawley rats, weighting 300-350 g were used for the pharmacokinetic experiment. Rats were fasted 16 hours before administration with free access to water.
Coenzyme Q10 as crystalline powder and as solid dispersion with phospholipids were suspended in 1% carboxymethyl cellulose water suspension and administered by intragastric gavage as a single dose of 50 mg of Coenzyme Q10/Kg.
Blood samples were collected from tail vein after 0.5-1.0-2.0-4.0-8.0-12.0 and 24 hours after administration.
Plasma was obtained from blood samples by centrifugation at 5.000×g for 15 minutes and kept frozen (−20° C.) until analysis. After protein sedimentation, Coenzyme Q10 was extracted by plasma samples with n-hexane; the extraction step with hexane was repeated for three times. The hexane phases, separated by centrifugation, were collected and the solvent was removed by evaporation under nitrogen. The residue was dissolved in 2-propanol for HPLC/MS analysis at 275 nm, using internal standard method for Coenzyme Q10 quantification.
The following pharmacokinetic parameters were calculated: […]

COC1=C(OC)C(=O)C(C/C=C(\C)CC/C=C(\C)CC/C=C(\C)CC/C=C(\C)CC/C=C(\C)CC/C=C(\C)CC/C=C(\C)CC/C=C(\C)CC/C=C(\C)CCC=C(C)C)=C(C)C1=O [Crystalline Coenzyme Q10, Coenzyme Q10]
Cmax: 230 ng/mL | Tmax: 3.8 h | AUC(0-t) (0-24 hours): 4100 ng·h/mL
